Assay results as given in patent publication US20080214845A1, “ANTIBACTERIAL 6'-MODIFIED 4,5-SUBSTITUTED AMINOGLYCOSIDE ANALOGS” (priority 2005, published 2008).

Columns and labels:
[1] = test system: Staphylococcus aureus (Smith strain ATCC 13709); experiment: Staphylococcus aureus mouse protection assay; format: in vivo; conditions: Staph conc. 10^6 IP in 10% mucin, treatments at 1 hour and 3 hour post infection
Protocol: Two of the novel aminoglycoside compounds of the invention were examined for their anitbacterial activity against staphylococcus aureus. The mice were infected IP with 0.5 ml […] staphylococcus aureus in 10% mucin. There were 10 mice in each treated group with treatments at 1 hour and 3 hour post infection. The Ibis compounds (IBIS00561085 R4═R5═CH3 and IBIS00561141 R4═H, R5═(CH2)2C6H5) were used at 75 mg/kg, 37.5 mg/kg, 18.8 mg/kg, 9.4 mg/kg, 4.7 mg/kg, 2.3 mg/kg, 1.17 mg/kg and 0.5 mg/kg. Amakacin, Paromomycin and Neomycin were used as the positive controls at concentration of 2 mg/kg, 1 mg/kg and 0.5 mg/kg.

[2] = test system: E. Coli.; experiment: Minimum inhibitory concentration (MIC), E. coli; format: cell-based; conditions: range of concentration; 20-24 hours at 37° C., A595
Protocol: (§1) The assays are carried out in 150 μL volume in duplicate in 96-well clear flat-bottom plates. The bacterial suspension from an overnight culture growth in appropriate medium is added to a solution of test compound in 2.5% DMSO in water. Final bacterial inoculum is approximately 10^2-10^3 CFU/well. The percentage growth of the bacteria in test wells relative to that observed for a control wells containing no compound is determined by measuring absorbance at 595 nm (A595) after 20-24 hours at 37° C. The MIC is determined as a range of concentration where complete inhibition of growth is observed at the higher concentration and bacterial cells are viable at the lower concentration. Both ampicillin and tetracycline are used as antibiotic positive controls in each screening assay.

[3] = target: 16S; experiment: Measurement of 16S Kd by FTICR mass spectrometry; format: binding
Protocol: (§2) Was performed according to the published report; […]-Lowery, […].; Mohan, […]. et al. Characterization of Low Affinity Complexes Between RNA and Small Molecules Using Electrospray Ionization Mass Spectrometry. J. Am. Chem. […] Screening is performed by measuring the formation of non-covalent complexes between a single ligand or ligand mixture and the appropriate RNA target, along with suitable control structured RNA target(s) simultaneously using a 9.4 T FT-ICR mass spectrometer as detector. Full experimental details of the assay have been described in related literature ([…]-Lowery, et al. in TrAC, Trends Anal. […] The abundances were integrated from the respective ions for free RNA and the ligand-RNA complex. […] The peak ratios are measured at each concentration, then a plot of complex/free RNA versus concentration of ligand added is fitted to a second (or higher) order binding polynomial to determine the KD.

[4] = target: 18S; experiment: 18S Kd by FTICR mass spectrometry; format: binding
Protocol: as §2

[5] = test system: S. Aureus; experiment: Minimum inhibitory concentration (MIC), S. aureus; format: cell-based; conditions: range of concentration; 20-24 hours at 37° C., A595
Protocol: as §1

[6] = test system: E. coli S30 bacterial extract (pBest Luc luciferase transcription/translation); experiment: Coupled bacterial transcription/translation assay (T/T); format: biochemical; conditions: luciferase reporter, 35 minutes at 37° C., read-out: Trans/Trans IC50
Protocol: The DNA template, pBest Luc™ (Promega), is a plasmid containing a reporter gene for firefly luciferase fused to a strong tac promoter and ribosome binding site. Messenger RNA from 1 μg pBestLuc was transcribed and translated in E. coli S30 bacterial extract in the presence or absence of test compound. Compounds were tested in a black 96 well microtiter plate with an assay volume of […]. Each test well contained: 5 μL test compound, 13 μL S30 premix (Promega), 4 μL 10× complete amino acid mix (1 mM each), 5 μL E. coli S30 extract and 8 μL of 0.125 μg/μL pBest Luc™. The transcription/translation reaction was incubated for 35 minutes at 37° C. followed by detection of functional luciferase with the addition of 30 μL LucLite™ (Packard). Light output was quantitated on a Packard TopCount.

Compound: NCC1OC(OC2C(CO)OC(OC3C(O)C(N)CC(N)C3OC3OC(CNCCc4ccccc4)C(O)C(O)C3N)C2O)C(N)C(O)C1O (stereo not drawn) [IBIS00561141]
- # Dead mice/Total mice in group ([1]; 0.5 mg/kg): 7/10 (10% Mucin).
- # Dead mice/Total mice in group ([1]; 1 mg/kg): 0/10 (10% Mucin)
- # Dead mice/Total mice in group ([1]; 2 mg/kg): 0/10 (10% Mucin)
- # Dead mice/Total mice in group ([1]; 4.5 mg/kg): 0/10 (10% Mucin)
- # Dead mice/Total mice in group ([1]; 9 mg/kg): 0/10 (10% Mucin)
- # Dead mice/Total mice in group ([1]; 18 mg/kg): 0/10 (10% Mucin)
- # Dead mice/Total mice in group ([1]; 37 mg/kg): 0/10 (10% Mucin)
- # Dead mice/Total mice in group ([1]; 75 mg/kg): 0/10 (10% Mucin)
- MIC E. Coli. [2]: 1.25 to 2.5 µM
- Kd [3]: 496 nM
- Kd [4]: 2160 nM
- MIC S. Aureus [5]: 0.3125 to 0.625 µM
- IC50 [6]: 200 nM

Compound: CC(C)(C)OC(=O)NNC[C@H]1O[C@H](O[C@H]2[C@H](O[C@@H]3O[C@H](CO)[C@@H](O[C@H]4O[C@@H](CN)[C@@H](O)[C@H](O)[C@H]4N)[C@H]3O)[C@@H](O)[C@H](N)C[C@@H]2N)[C@H](N)[C@@H](O)[C@@H]1O [IBIS00561082]
- MIC E. Coli. [2]: 6 to 12 µM
- Kd [3]: 14.9 nM
- Kd [4]: 1350 nM
- MIC S. Aureus [5]: 12 to 25 µM
- IC50 [6]: 308 nM
